# Data taken from ChEMBL document CHEMBL3301361, “Experimental in vitro DMPK and physicochemical data on a set of publicly disclosed compounds”.
# What was measured:
# [1] = in vitro; conditions: SD, HW or BN, rat, plasma
# [2] = in vitro; conditions: human, plasma
# [3] = physchem
# [4] = in vitro; conditions: human
# [5] = physchem; conditions: octan-1-ol/water
# [6] = physchem; remark: listed apart in the source
# [7] = in vitro; conditions: hepatocytes
# [8] = in vitro; conditions: human, hepatocytes
# [9] = physchem; conditions: pH 7.4 buffer
# [10] = in vitro; conditions: Beagle, dog, plasma
Structure (SMILES),pKa [3],"logD ([5]; pH 7.4, LogD7.4)",further results
O=C(O)CCc1nc(-c2ccccc2)c(-c2ccccc2)o1 [OXAPROZIN],3.87,,fraction unbound at 5 h [1]: 0.0024; fraction unbound at 5 h ([2]; PPB): 0.0005
Nc1nc2nc(SCc3ccccc3)[nH]c(=O)c2s1,7.1,,microsomal CLint ([4]; liver microsomes): < 3 µL/min/mg
O=C(O)/C=C(/c1ccccc1)C(F)(F)F,2.41,,
Nc1ccc(S(=O)(=O)Nc2nccs2)cc1 [SULFATHIAZOLE],7.01,-0.37,
CC1(C)S[C@@H]2[C@H](NC(=O)Cc3ccccc3)C(=O)N2[C@H]1C(=O)O [PENICILLIN G],3.32,,
NC1CCc2cc(O)c(O)cc2C1 (centres undefined),9.1,,pKa [6]: 10.5
CO/N=C1\CN(c2nc3c(cc2F)c(=O)c(C(=O)O)cn3C2CC2)CC1CN (centres undefined) [GEMIFLOXACIN],6.36,,pKa [6]: 8.6
CS(=O)(=O)NC(=O)CCCc1c(-c2ccc(F)cc2)[nH]c2ccc(C#N)cc12,5.2,1.5,fraction unbound at 5 h ([2]; PPB): 0.013; hepatocyte CLint [7]: 14.3 µL/min/1e6 cells; microsomal CLint ([4]; microsomes): < 3 µL/min/mg
CCc1cccc2c3c([nH]c12)C(CC)(CC(=O)O)OCC3 (centres undefined) [ETODOLAC],4.15,,hepatocyte CLint [8]: 12.9 µL/min/1e6 cells
Nc1ccc(S(=O)(=O)Nc2ncccn2)cc1 [SULFADIAZINE],6.29,,
Nc1ncnc2c1ncn2CCOCP(=O)(O)O [ADEFOVIR],7.66,,pKa [6]: 4.34
CN(C)c1ccc(S(=O)(=O)NC(=O)N2CCC(N3CCC(Oc4ccc(Cl)c(Cl)c4)CC3)CC2)cc1,6.1,1.7,fraction unbound at 5 h ([2]; PPB): 0.0017; microsomal CLint ([4]; liver microsomes): 10.5 µL/min/mg
CC(C)(C)c1cc(NC(=O)NCc2ccccc2Sc2ccc3nnc(-c4ccccc4SCCO)n3c2)n(-c2ccc(O)c(Cl)c2)n1 [PF-03715455],7.17,,fraction unbound at 5 h [1]: 0.0013; hepatocyte CLint [7]: 70.8 µL/min/1e6 cells; hepatocyte CLint [8]: 25.1 µL/min/1e6 cells; microsomal CLint ([4]; liver microsomes): > 150 µL/min/mg
O=C(Nc1ccc([N+](=O)[O-])cc1O)Nc1ccccc1Br,7.7,3.9,fraction unbound at 5 h ([2]; PPB): 0.0027
Cn1c(=O)c2nn[nH]c2n(C)c1=O,4.4,,
C(=C\c1nn[nH]n1)/c1ccccc1,4.5,-0.4,
Nc1nc2c(ncn2CCC(CO)CO)c(=O)[nH]1 [PENCICLOVIR],9.48,,pKa [6]: 2.97
O=C(O)c1ccc(-c2ccc(Cl)c(C(=O)NCC34CC5CC(CC(C5)C3)C4)c2)cc1,4.1,2.48,fraction unbound at 5 h [1]: 0.0074; fraction unbound at 5 h ([2]; PPB): 0.0077
CCC(Oc1ccc(C(F)(F)F)cc1-c1ccc(S(=O)(=O)CC)cc1C)C(=O)O (centres undefined),3.4,0.31,
N#Cc1c(O)nc(N)nc1-c1ccccc1,6.52,,fraction unbound at 5 h [1]: 0.0366; fraction unbound at 5 h ([2]; PPB): 0.0366
CC1=C(CC(=O)O)c2cc(F)ccc2/C1=C\c1ccc([S+](C)[O-])cc1 (centres undefined),3.9,-0.01,microsomal CLint ([4]; liver microsomes): < 3 µL/min/mg
O=C(O)c1ccc(CN2CCC(CN3CCC(Oc4ccc(Cl)c(Cl)c4)CC3)CC2)cc1,3.5,,microsomal CLint ([4]; liver microsomes): < 3 µL/min/mg
Cc1ccc(S(=O)(=O)Nc2c(C(=O)N[C@@H](C)C(C)(C)C)c(C)nn2C(C)(C)C)cc1,5.5,1.84,microsomal CLint ([4]; microsomes): 37 µL/min/mg; solubility thermodynamic [9]: 513 µM

Structure (SMILES),pKa [3],"logD ([5]; pH 7.4, LogD7.4)",further results
Cc1nnc(NS(=O)(=O)c2ccc(N)cc2)s1 [SULFAMETHIZOLE],5.4,-1.33,fraction unbound at 5 h ([2]; PPB): 0.0647
CCCc1c2nccc(Cl)c2cc2c(=O)cc(C(=O)O)oc12,2.5,,
COc1ccc2c(=O)cc(C(=O)O)oc2c1,< 2,,
Cc1cn(Cc2ccccc2)c(=O)[nH]c1=O,9.4,,logD ([5]; pH 7.4): 1.19
Cc1ccccc1S(=O)(=O)NC(=O)N1CCC(N2CCC(Oc3ccc(Cl)c(Cl)c3)CC2)CC1,3.4,1.71,fraction unbound at 5 h ([2]; PPB): 0.105
N#Cc1ccc2[nH]c(-c3ccc(F)cc3)c(CCCC(=O)NS(N)(=O)=O)c2c1,5.9,1.95,fraction unbound at 5 h ([2]; PPB): 0.0146; hepatocyte CLint [7]: 19.6 µL/min/1e6 cells; microsomal CLint ([4]; liver microsomes): < 3 µL/min/mg; solubility thermodynamic [9]: 26.9 µM
N#Cc1sccc1NS(=O)(=O)c1ccc(Cl)cc1,5.1,,
N#Cc1cn(Cc2ccco2)c(=O)[nH]c1=O,6.1,,microsomal CLint ([4]; liver microsomes): < 3 µL/min/mg
NS(=O)(=O)c1cc(C2(O)NC(=O)c3ccccc32)ccc1Cl (centres undefined) [CHLORTHALIDONE],9.11,,logD ([5]; pH 7.4): 0.97; solubility thermodynamic [9]: 501 µM
CCC(CC)NC(=O)c1cn(-c2ccccc2)nc1NS(=O)(=O)c1ccc(C)cc1,5.3,2.51,fraction unbound at 5 h [1]: 0.0033; fraction unbound at 5 h ([2]; PPB): 0.0013; hepatocyte CLint [7]: 7 µL/min/1e6 cells; microsomal CLint ([4]; liver microsomes): 9 µL/min/mg; solubility thermodynamic [9]: 174 µM
Cc1ccc2c(c1)c(Sc1ccc(Cl)cc1)c(C)n2CC(=O)O,4.1,2.18,microsomal CLint ([4]; liver microsomes): 7 µL/min/mg
Cc1onc(-c2c(F)cccc2Cl)c1C(=O)N[C@@H]1C(=O)N2[C@@H]1SC(C)(C)[C@@H]2C(=O)O [FLOXACILLIN],2.46,,
Cc1ccc(S(=O)(=O)NC(=O)NN2CCCCCC2)cc1 [TOLAZAMIDE],5.8,0.01,
COCCNc1nc(N)c2nc(O)n(Cc3ccccc3)c2n1,10,2.18,fraction unbound at 5 h ([2]; PPB): 0.208; microsomal CLint ([4]; liver microsomes): 5.5 µL/min/mg
CC1=NS(=O)(=O)c2cc(Cl)ccc2N1 [DIAZOXIDE],8.42,1.05,
CC1=NN(C(=O)CCS)C(C(=O)O)S1 (centres undefined),2.4,,
O=C(O)COc1ccc([N+](=O)[O-])cc1-c1ccccc1,2.7,-0.69,fraction unbound at 5 h ([2]; PPB): 0.0041
O=C(O)c1ccccc1Nc1cccc(C(F)(F)F)c1 [FLUFENAMIC ACID],3.56,,logD ([5]; pH 7.4): 2.01
Cn1c(C(=O)O)c(CCCOc2cccc3ccccc23)c2ccccc21,4.01,2.99,
COc1nc(Cl)c(Cl)nc1NS(=O)(=O)c1ccc(Cl)s1,3.6,,fraction unbound at 5 h ([2]; PPB): 0.0008; microsomal CLint ([4]; liver microsomes): 10 µL/min/mg
CC(=O)Nc1ccc(O)cc1 [ACETAMINOPHEN],9.48,0.25,fraction unbound at 5 h [2]: 0.734
C[C@@H](C(=O)NS(C)(=O)=O)c1ccc(OS(=O)(=O)C(F)(F)F)cc1 [LADARIXIN],3.1,,hepatocyte CLint [7]: < 3 µL/min/1e6 cells; microsomal CLint ([4]; liver microsomes): < 3 µL/min/mg
O=C(O)c1coc2ccccc2c1=O,4,,

Structure (SMILES),pKa [3],"logD ([5]; pH 7.4, LogD7.4)",further results
CCS(=O)(=O)c1ccc(-c2cc(C(F)(F)F)ccc2OCC(=O)O)c(Cl)c1,3.3,,fraction unbound at 5 h [1]: 0.0313; microsomal CLint ([4]; liver microsomes): < 3 µL/min/mg
N#Cc1cccc(S(=O)(=O)NC[C@@H](O)CN2CCC(Oc3ccc(Cl)c(Cl)c3)CC2)c1,10.1,,
CCC(CC)n1nc(C)c(C(=O)N[C@@H](C)C(C)(C)C)c1NS(=O)(=O)c1ccc(C)cc1,4.6,1.88,fraction unbound at 5 h [1]: 0.0818; fraction unbound at 5 h ([2]; PPB): 0.02
O=C(O)c1cc(=O)c2cc(Cl)ccc2o1,< 2,,
Cc1nnc(C(=O)NC(C)(C)c2nc(C(=O)NCc3ccc(F)cc3)c(O)c(=O)n2C)o1,3.97,,
CCOC(=O)N1CCC(c2cc(=O)n(-c3ccccc3)[nH]2)CC1,6.8,,
CC1(C)S[C@@H]2[C@H](NC(=O)[C@H](NC(=O)N3CCNC3=O)c3ccccc3)C(=O)N2[C@H]1C(=O)O [AZLOCILLIN],2.41,,
CCS(=O)(=O)c1ccc(-c2cc(C(F)(F)F)ccc2CCC(=O)O)c(C)c1,4.2,,fraction unbound at 5 h ([2]; PPB): 0.0256; microsomal CLint ([4]; liver microsomes): < 3 µL/min/mg
O=C(O)c1cc(=O)c2ccccc2[nH]1 [TRANSTORINE],2.5,,
CCC(CC)NC(=O)c1c(C)nn(C(C)C)c1NS(=O)(=O)c1ccc(C)cc1,4.7,0.92,fraction unbound at 5 h [1]: 0.089; fraction unbound at 5 h ([2]; PPB): 0.035
O=C(O)c1cc(=O)c2ccccc2o1 [CHROMOCARB],< 2,,
CCS(=O)(=O)c1ccc(-c2cc(C(F)(F)F)ccc2OC(C)(C)C(=O)O)c(C)c1,3.2,,
O=C(NCC12CC3CC(CC(C3)C1)C2)c1cc(CN2CCNCC2)ccc1Cl,,1.84,fraction unbound at 5 h [1]: 0.062; fraction unbound at 5 h ([2]; PPB): 0.0872; pKa [6]: 8.85; hepatocyte CLint [7]: 4 µL/min/1e6 cells; hepatocyte CLint [8]: 4.46 µL/min/1e6 cells; microsomal CLint ([4]; microsomes): 18 µL/min/mg; fraction unbound at 5 h [10]: 0.157; solubility thermodynamic [9]: 74.1 µM
O=C(NCC12CC3CC(CC(C3)C1)C2)c1cc(-n2ncc(=O)[nH]c2=O)ccc1Cl,6.2,2.1,fraction unbound at 5 h [1]: 0.0171; hepatocyte CLint [7]: 15.3 µL/min/1e6 cells; hepatocyte CLint [8]: 37 µL/min/1e6 cells; microsomal CLint ([4]; liver microsomes): 83.8 µL/min/mg
CCCCc1oc2ccc(NS(C)(=O)=O)cc2c1C(=O)c1ccc(OCCCN(CCCC)CCCC)cc1 [DRONEDARONE],7.69,,fraction unbound at 5 h ([2]; PPB): 0.0009
CCC(CC)NC(=O)c1nnn(-c2ccccc2)c1NS(=O)(=O)c1ccc(C)cc1,3.3,0.46,fraction unbound at 5 h ([2]; PPB): 0.0072; hepatocyte CLint [7]: 56 µL/min/1e6 cells; microsomal CLint ([4]; liver microsomes): 35 µL/min/mg
CCCc1c2c(cc3c(=O)cc(C(=O)O)oc13)CCCC2 [PROCROMIL],< 2,,
CN(C(=O)c1c(O)c2ccccc2n(C)c1=O)c1ccccc1 [ROQUINIMEX],4.2,,
Cc1nn(-c2ccccc2)c(NC(=O)NS(=O)(=O)c2ccc(Cl)cc2)c1C#N,2.3,,fraction unbound at 5 h [1]: 0.0175; hepatocyte CLint [7]: 21.5 µL/min/1e6 cells; microsomal CLint ([4]; microsomes): < 3 µL/min/mg
Cn1nnnc1SCC1=C(C(=O)O)N2C(=O)[C@@H](NC(=O)[C@H](O)c3ccccc3)[C@H]2SC1 [CEFAMANDOLE],3.29,,
Cc1ccc(S(=O)(=O)Nc2c(C(=O)N[C@@H](C)C(C)(C)C)c(C(F)(F)F)nn2-c2ccccc2)cc1,3.8,,fraction unbound at 5 h [1]: 0.0097; fraction unbound at 5 h ([2]; PPB): 0.0043; hepatocyte CLint [7]: 18.8 µL/min/1e6 cells; microsomal CLint ([4]; liver microsomes): 120 µL/min/mg
CCn1nc(C(=O)O)c(=O)c2cc3c(cc21)OCO3 [CINOXACIN],4.36,,
